1 compound from paper PMC4192545, “Suramin Inhibits Hsp104 ATPase and Disaggregase Activity” (PLoS ONE, 2014) can be followed below.

Test [1] has as its target T1, ClpB (Escherichia coli, UniProt P63284).
T1 construct: made in house
Kind of test: ClpB ATPase assay. In kind it is biochemical, E. coli. The note with it: for Normalized ATPase Activity: 10 min, ATP 1 mM, Figure 5A. As to the method: (§1) Wild-type or mutant Hsp104 (0.25 µM monomer) in ATPase buffer (20 mM HEPES-KOH pH 7.4, 20 mM NaCl and 10 mM MgCl2) was incubated for 60 or 10 min at 25°C in the presence of ATP (1 mM) as noted. ATPase activity was assessed by the release of inorganic phosphate determined by using a malachite green phosphate detection kit (Innova).
(A) ClpB (0.25 µM monomer) was incubated for 10 min with ATP (1 mM) and varying concentrations of Suramin. The amount of Pi produced was measured by absorbance at 635 nm. Absorbance values were normalized to the absorbance produced by ClpB in the absence of inhibitor. Values represent mean ±S.D. (n = 6). (B) Urea-denatured firefly luciferase aggregates were incubated for 90 min at 25°C with ClpB (1 µM hexamer) in the presence of 1∶1 mixtures of ATP and ATPγS and varying concentrations of Suramin. Reactivation of luciferase was then determined by luminescence and converted to % WT ClpB activity (activity of 1 µM WT ClpB in the presence of ATP and ATPγS). Values represent mean ±S.D. (n = 6–12). TEXT PRINTED IN THE PICTURE: (A) Suramin: Normalized ATPase Activity: 1.03 ([Suramin] μM: 0); Normalized ATPase Activity: 0.76 ([Suramin] μM: 100); Normalized ATPase Activity: 0.78 ([Suramin] μM: 50); Normalized ATPase Activity: 0.60 ([Suramin] μM: 25); Normalized ATPase Activity: 0.59 ([Suramin] μM: 10); Normalized ATPase Activity: 0.65 ([Suramin] μM: 5); Normalized ATPase Activity: 1.01 ([Suramin] μM: 1) | (B) Suramin: Normalized Luciferase Refolding Activity: 1.00 ([Suramin] μM: 0); Normalized Luciferase Refolding Activity: 0.16 ([Suramin] μM: 100); Normalized Luciferase Refolding Activity: 1.03 ([Suramin] μM: 50); Normalized Luciferase Refolding Activity: 1.39 ([Suramin] μM: 25); Normalized Luciferase Refolding Activity: 2.23 ([Suramin] μM: 10); Normalized Luciferase Refolding Activity: 1.82 ([Suramin] μM: 5); Normalized Luciferase Refolding Activity: 1.02 ([Suramin] μM: 1)

For test [2], the target named is T2, Hsp104^A503V (Saccharomyces cerevisiae, UniProt P31539, A503V).
T2 construct: made in house; host or cells: E. coli BL21-DE3 RIL
T2 sequence (P31539 whole entry A503V): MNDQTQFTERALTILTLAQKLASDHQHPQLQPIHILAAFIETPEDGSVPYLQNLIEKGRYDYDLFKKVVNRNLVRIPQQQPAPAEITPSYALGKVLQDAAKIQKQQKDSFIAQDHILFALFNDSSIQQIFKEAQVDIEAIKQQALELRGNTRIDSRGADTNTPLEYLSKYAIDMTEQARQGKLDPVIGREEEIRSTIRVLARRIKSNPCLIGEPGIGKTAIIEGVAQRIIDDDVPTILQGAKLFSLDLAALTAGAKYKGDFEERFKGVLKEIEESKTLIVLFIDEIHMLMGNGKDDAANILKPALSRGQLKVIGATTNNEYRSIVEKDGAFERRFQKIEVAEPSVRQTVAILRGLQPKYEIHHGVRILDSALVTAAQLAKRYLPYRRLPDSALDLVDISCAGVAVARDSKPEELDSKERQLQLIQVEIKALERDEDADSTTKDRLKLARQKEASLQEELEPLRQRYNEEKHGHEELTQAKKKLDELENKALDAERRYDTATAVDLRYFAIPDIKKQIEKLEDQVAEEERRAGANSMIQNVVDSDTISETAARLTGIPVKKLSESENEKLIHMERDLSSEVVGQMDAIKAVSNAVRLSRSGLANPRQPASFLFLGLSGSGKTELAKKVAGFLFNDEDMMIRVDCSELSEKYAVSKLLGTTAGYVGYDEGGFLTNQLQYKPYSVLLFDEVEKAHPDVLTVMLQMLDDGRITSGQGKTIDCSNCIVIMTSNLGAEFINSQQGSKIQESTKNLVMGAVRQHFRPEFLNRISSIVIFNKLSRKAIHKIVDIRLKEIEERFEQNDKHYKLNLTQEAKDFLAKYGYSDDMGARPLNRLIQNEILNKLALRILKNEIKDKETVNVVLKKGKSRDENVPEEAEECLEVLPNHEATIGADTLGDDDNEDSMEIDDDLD
The experiment in a line: ATPase assay, Hsp104^A503V. The class given is biochemical, yeast. As to the method:
as §1
(§2) Figure 7 Hsp104 variants respond differently to Suramin than Hsp104^WT. (A) Hsp104 variants (0.25 µM monomer) were incubated for 10 min with ATP (1 mM) and varying concentrations of Suramin. The amount of Pi produced was measured by absorbance at 635 nm. Absorbance values were normalized to the absorbance produced by each Hsp104 variant in the absence of inhibitor. Values represent mean ±S.D. (n = 6). (B) Urea-denatured firefly luciferase aggregates were incubated for 90 min at 25°C with Hsp104 variants (1 µM hexamer) plus 1∶1 mixtures of ATP and ATPγS (or ATP alone) and varying concentrations of Suramin. Luciferase reactivation was then determined and normalized to untreated disaggregase activity for each variant in the presence of ATPγS: ATP (or ATP alone). 1∶1 mixtures of ATP and ATPγS were used for Hsp104^WT and Hsp104^T317A, while ATP alone was used for Hsp104^A503V and Hsp104^N728A. Values represent mean ±S.D. (n = 6–12).

Test [3] addresses T2, Hsp104^A503V. Kind of test: biochemical. In kind it is biochemical, yeast. As for the experimental part: (§3) Luciferase reactivation was performed as described, [37]. To assemble aggregates, firefly luciferase (50 µM) in luciferase refolding buffer (LRB, 25 mM HEPES-KOH, 7.4, 150 mM KAOc, 10 mM MgAOc, 10 mM DTT) with 6 M urea was incubated at 30°C for 20 min. Luciferase was then rapidly diluted 100-fold into LRB, divided into 100 µL aliquots, snap frozen in liquid N2, and stored at −80°C. For reactivation assays, aggregated luciferase (50 nM) was incubated with Hsp104 (1 µM hexamer), plus 2.6 mM ATPγS, 2.6 mM ATP and an ATP regeneration system (1 mM creatine phosphate, 0.25 µM creatine kinase (Roche Applied Science)) for 90 minutes at 25°C. Luciferase assay system was purchased from Promega. Luciferase activity was assessed by luminescence measured on a Safire^2 microplate reader (Tecan, Männedorf, Switzerland). The half maximal inhibitory concentration (IC50) was calculating by fitting luciferase-refolding data at different Suramin concentrations with Prism (GraphPad Software, Inc., La Jolla, CA).
as §2, with “(A)” for “Figure 7 Hsp104 variants respond differently to Suramin than Hsp104^WT. (A)”

Test [4] deals with T3, Hsp104^N728A (Saccharomyces cerevisiae, UniProt P31539, N728A).
T3 construct: made in house; host or cells: E. coli BL21-DE3 RIL
T3 sequence (P31539 whole entry N728A): as the sequence (P31539 whole entry A503V) above, with V503A, N728A counted along it
Kind of test: biochemical. The class given is biochemical, yeast. As to conditions: for Hsp104^N728A refolding activity: ATP alone. As to the method:
as §3
as §2, with “(A)” for “Figure 7 Hsp104 variants respond differently to Suramin than Hsp104^WT. (A)”

Test [5] deals with T4, Hsp104^T317A (Saccharomyces cerevisiae, UniProt P31539, T317A).
T4 construct: made in house; host or cells: E. coli BL21-DE3 RIL
T4 sequence (P31539 whole entry T317A): as the sequence (P31539 whole entry A503V) above, with T317A, V503A counted along it
The experiment in a line: ATPase assay, Hsp104^T317A. In kind it is biochemical, yeast. The note with it: read-out: Hsp104^T317A ATPase activity relative to uninhibited protein. As for the experimental part:
as §1, §2

T1 sequence (P63284 whole entry): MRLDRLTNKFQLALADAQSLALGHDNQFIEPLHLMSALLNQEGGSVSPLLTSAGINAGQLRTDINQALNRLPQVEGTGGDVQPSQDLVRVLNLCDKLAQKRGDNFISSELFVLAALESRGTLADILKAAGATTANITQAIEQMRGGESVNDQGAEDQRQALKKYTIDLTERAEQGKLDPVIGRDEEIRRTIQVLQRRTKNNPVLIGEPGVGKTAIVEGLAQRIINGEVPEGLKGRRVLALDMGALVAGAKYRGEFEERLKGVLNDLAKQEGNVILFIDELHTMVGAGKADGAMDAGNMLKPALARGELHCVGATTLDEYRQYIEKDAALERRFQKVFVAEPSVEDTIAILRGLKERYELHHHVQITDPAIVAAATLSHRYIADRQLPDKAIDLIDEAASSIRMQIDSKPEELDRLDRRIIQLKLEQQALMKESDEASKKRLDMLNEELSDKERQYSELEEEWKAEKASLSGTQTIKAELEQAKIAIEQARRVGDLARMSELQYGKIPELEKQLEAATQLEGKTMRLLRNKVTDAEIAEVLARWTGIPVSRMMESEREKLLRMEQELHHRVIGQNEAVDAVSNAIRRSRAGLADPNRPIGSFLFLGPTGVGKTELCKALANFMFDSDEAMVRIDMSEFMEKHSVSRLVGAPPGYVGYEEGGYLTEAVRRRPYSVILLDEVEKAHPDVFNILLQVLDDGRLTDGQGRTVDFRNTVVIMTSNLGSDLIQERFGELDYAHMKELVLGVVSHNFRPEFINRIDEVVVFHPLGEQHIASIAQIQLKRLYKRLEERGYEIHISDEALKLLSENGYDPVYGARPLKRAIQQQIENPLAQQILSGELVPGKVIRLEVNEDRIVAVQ

Broadly, the inhibition is the percentage by which the read-out fell short of the control. Higher therefore signals a response far below the control. As a reminder, the IC50 is the point on the concentration scale where inhibition reaches its midpoint. A lower IC50 goes with higher potency. Turning to `Cc1ccc(C(=O)Nc2ccc(S(=O)(=O)O)c3cc(S(=O)(=O)O)cc(S(=O)(=O)O)c23)cc1NC(=O)c1cccc(NC(=O)Nc2cccc(C(=O)Nc3cc(C(=O)Nc4ccc(S(=O)(=O)O)c5cc(S(=O)(=O)O)cc(S(=O)(=O)O)c45)ccc3C)c2)c1` [Suramin], the “Normalized ATPase Activity” value was 0.76 in test [1] (ClpB 0.25 µM monomer, Suramin 100 µM); 1.01 in test [1] (ClpB, Suramin 1 µM); 0.65 in test [1] (ClpB, Suramin 5 µM); 0.59 in test [1] (ClpB, Suramin 10 µM); 0.60 in test [1] (ClpB, Suramin 25 µM); 0.78 in test [1] (ClpB, Suramin 50 µM). Also, the inhibition at 100 µM in test [1] (Suramin 100 µM) came to 24%. Moreover, in test [2] (Hsp104^A503V), the “Inhibitor concentration of maximal ATPase inhibition” value stood at 25 µM. In addition, the activity at 25 µM in test [2] (read-out: Hsp104^A503V ATPase activity relative to uninhibited) is 18%. For the same compound, the IC50 in test [3] is roughly 0.61 µM; in test [4] it was roughly 92.4 µM. Further, the “Hsp104^A503V refolding activity” value in test [3] (Suramin 1 µM, ATP alone) was “less than 50%”. For the same compound, the “Hsp104^N728A refolding activity” value in test [4] (Suramin 1 µM) is recorded as roughly 100%; in test [4] (Suramin 50 µM), roughly 36%. Besides, the activity at 100 µM in test [5] is roughly 65%.
